Results published in PubChem BioAssay AID248 (DTP/NCI, 2004).
Values joined by “and” are separate entries in the source; they are usually repeats but may differ in a detail not shown here. Equal entries are not always repeated. Inconclusive results and toxic doses are left out. No stated cut-off is given here; in the data, active means T/C of 150% or more; inactive means T/C below 125%.

Test system: L1210 leukemia ip in BDF1 mice, survival T/C
Assay: NCI In Vivo Anticancer Drug Screen. Data for tumor model L1210 Leukemia (intraperitoneal) in B6D2F1 (BDF1) mice
Details: endpoint: mean survival time, higher = longer survival
How it was run: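 Read-out is survival time, reported as the treated-group measurement over the vehicle-control measurement.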

[1] = dose: 100.0 mg/kg/injection, schedule: Q04DX003 (ip), vehicle: Klucel (hydroxypropylcellulose) (HPC)
[2] = dose: 200.0 mg/kg/injection, schedule: Q04DX003 (ip), vehicle: Klucel (hydroxypropylcellulose) (HPC)
[3] = dose: 400.0 mg/kg/injection, schedule: Q04DX003 (ip), vehicle: Klucel (hydroxypropylcellulose) (HPC)
[4] = dose: 100.0 mg/kg/injection, schedule: Q01DX009 (ip), vehicle: Klucel (hydroxypropylcellulose) (HPC)
[5] = dose: 200.0 mg/kg/injection, schedule: Q01DX009 (ip), vehicle: Klucel (hydroxypropylcellulose) (HPC)
[6] = dose: 400.0 mg/kg/injection, schedule: Q01DX009 (ip), vehicle: Klucel (hydroxypropylcellulose) (HPC)
[7] = dose: 100.0 mg/kg/injection, schedule: Q04DX003 (ip), vehicle: saline
[8] = dose: 200.0 mg/kg/injection, schedule: Q04DX003 (ip), vehicle: saline
[9] = dose: 400.0 mg/kg/injection, schedule: Q04DX003 (ip), vehicle: saline
[10] = dose: 100.0 mg/kg/injection, schedule: Q01DX009 (ip), vehicle: saline
[11] = dose: 100.0 mg/kg/injection, schedule: Q04DX003 (ip), vehicle: saline with Tween-80
[12] = dose: 25.0 mg/kg/injection, schedule: Q04DX003 (ip), vehicle: Klucel (hydroxypropylcellulose) (HPC)
[13] = dose: 50.0 mg/kg/injection, schedule: Q04DX003 (ip), vehicle: Klucel (hydroxypropylcellulose) (HPC)
[14] = dose: 200.0 mg/kg/injection, schedule: Q04DX003 (ip), vehicle: saline with Tween-80
[15] = dose: 400.0 mg/kg/injection, schedule: Q04DX003 (ip), vehicle: saline with Tween-80
[16] = dose: 50.0 mg/kg/injection, schedule: Q04DX002 (ip), vehicle: Klucel (hydroxypropylcellulose) (HPC)
[17] = dose: 100.0 mg/kg/injection, schedule: Q04DX002 (ip), vehicle: Klucel (hydroxypropylcellulose) (HPC)
[18] = dose: 200.0 mg/kg/injection, schedule: Q04DX002 (ip), vehicle: Klucel (hydroxypropylcellulose) (HPC)
[19] = dose: 400.0 mg/kg/injection, schedule: Q04DX002 (ip), vehicle: Klucel (hydroxypropylcellulose) (HPC)

Measured: T/C

CCCCCCCCCCCCCCCCOc1ccc(C=Nc2ccc(C)cc2)cc1
inactive: [1] 103 % of control | [2] 97 % of control | [3] 104 % of control

O=c1cc(-c2ccccc2)cc(-c2ccccc2)o1
inactive: [4] 102 % of control | [1] 96 % of control | [5] 96 % of control | [2] 100 % of control | [6] 96 % of control | [3] 94 % of control

CC(=O)NN(c1ccccc1)c1ccccc1
inactive: dose: 50.0 mg/kg/injection, schedule: Q01DX009 (ip), vehicle: Klucel (hydroxypropylcellulose) (HPC) 98 % of control | [4] 104 % of control | [1] 93 % of control | [5] 96 % of control | [2] 86 % of control | [3] 91 % of control

CC(c1ccc([N+](=O)[O-])cc1)n1cnc2c(N(CCO)CCO)ncnc21 (stereo unspecified)
inactive: dose: 100.0 mg/kg/injection, schedule: Q01DX001 (ip), vehicle: saline 104 % of control | dose: 200.0 mg/kg/injection, schedule: Q01DX001 (ip), vehicle: saline 103 % of control | dose: 400.0 mg/kg/injection, schedule: Q01DX001 (ip), vehicle: saline 103 % of control

O=c1[nH][nH]c(-c2ccccc2)c1Cc1ccccc1
inactive: [7] 95 % of control | [8] 96 % of control | [9] 96 % of control

CC(C)(C)C(=O)Oc1ccc(C(C)(C)C)cc1
inactive: [4] 101 % of control | [1] 104 % of control | [5] 102 % of control | [2] 98 % of control | [6] 98 % of control | [3] 92 % of control

Clc1c(Cl)c([O][Sn]([c]2ccccc2)([c]2ccccc2)[c]2ccccc2)c(Cl)c(Cl)c1[O][Sn]([c]1ccccc1)([c]1ccccc1)[c]1ccccc1
inactive: dose: 3.12 mg/kg/injection, schedule: Q01DX009 (ip), vehicle: Klucel (hydroxypropylcellulose) (HPC) 108 % of control | dose: 6.25 mg/kg/injection, schedule: Q01DX009 (ip), vehicle: Klucel (hydroxypropylcellulose) (HPC) 91 % of control | dose: 25.0 mg/kg/injection, schedule: Q01DX009 (ip), vehicle: Klucel (hydroxypropylcellulose) (HPC) 90 % of control

NCCCC(N)C(=O)NCCCCCCCCCCNC(=O)C(N)CCCN (stereo unspecified)
inactive: dose: 10.0 mg/kg/injection, schedule: Q01DX Z (ip), vehicle: saline 93 % of control | dose: 30.0 mg/kg/injection, schedule: Q01DX Z (ip), vehicle: saline 101 % of control

Nc1cc(Cl)cc2c1nc(NCCO)c1ccccc12
inactive: [1] 97 % of control | [2] 90 % of control | [3] 98 % of control

CCCCCCCCC(=O)C[N+](=O)[O-]
inactive: dose: 18.8 mg/kg/injection, schedule: Q01DX009 (ip), vehicle: saline 97 % of control | dose: 18.8 mg/kg/injection, schedule: Q04DX003 (ip), vehicle: saline 106 % of control | dose: 37.5 mg/kg/injection, schedule: Q01DX009 (ip), vehicle: saline 95 % of control | dose: 37.5 mg/kg/injection, schedule: Q04DX003 (ip), vehicle: saline 95 % of control | dose: 75.0 mg/kg/injection, schedule: Q01DX001 (ip), vehicle: saline 93 % of control | dose: 75.0 mg/kg/injection, schedule: Q01DX009 (ip), vehicle: saline 99 % of control | dose: 75.0 mg/kg/injection, schedule: Q04DX003 (ip), vehicle: saline 95 % of control

ClCc1ccncc1
inactive: [10] 87 % of control | [7] 109 % of control | dose: 200.0 mg/kg/injection, schedule: Q01DX009 (ip), vehicle: saline 95 % of control | [8] 98 % of control | [9] 98 % of control

CCNCc1ccc(OC)cc1
inactive: dose: 25.0 mg/kg/injection, schedule: Q01DX009 (ip), vehicle: saline 101 % of control | dose: 50.0 mg/kg/injection, schedule: Q01DX009 (ip), vehicle: saline 93 % of control | [10] 100 % of control | [11] 120 % of control

Cc1ccc(NC(=O)Nc2onc(C)c2C)c([N+](=O)[O-])c1
inactive: [12] 93 % of control | [13] 93 % of control | [1] 93 % of control and 88 % of control

Cc1cnc(N)cn1 (tested in a mixture with another compound)
inactive: [1] 102 % of control | [2] 109 % of control | [3] 88 % of control

C/C=C/C(=O)Nc1cccc(OC(=O)NCC)c1
inactive: [11] 95 % of control | [14] 93 % of control | [15] 98 % of control

c1ccc([As]2c3ccccc3Nc3ccccc32)cc1
inactive: dose: 100.0 mg/kg/injection, schedule: Q04DX002 (ip), vehicle: saline with Tween-80 89 % of control | dose: 200.0 mg/kg/injection, schedule: Q04DX002 (ip), vehicle: saline with Tween-80 86 % of control | dose: 400.0 mg/kg/injection, schedule: Q04DX002 (ip), vehicle: saline with Tween-80 86 % of control

COc1ccc(NC(=O)Nc2ccccc2)cc1
inactive: [16] 105 % of control | [17] 98 % of control and 102 % of control | [18] 99 % of control | [19] 91 % of control

CCCCC(CC)NC(=O)c1cc(OC)c(OC)c(OC)c1 (stereo unspecified)
inactive: [12] 106 % of control | [13] 102 % of control | [1] 105 % of control | [2] 90 % of control | [3] 110 % of control

O=C(Nc1ncccn1)Nc1cccc2ccccc12
inactive: dose: 12.5 mg/kg/injection, schedule: Q04DX002 (ip), vehicle: Klucel (hydroxypropylcellulose) (HPC) 102 % of control | dose: 25.0 mg/kg/injection, schedule: Q04DX002 (ip), vehicle: Klucel (hydroxypropylcellulose) (HPC) 97 % of control | [16] 97 % of control | [17] 92 % of control | [18] 92 % of control | [19] 95 % of control

CCN(CC)CC(=O)N1Cc2ccccc2Cc2ccccc2C1
inactive: [12] 92 % of control | [13] 100 % of control | [1] 107 % of control

CCOC(=O)NNC(=O)c1ccccc1N(C)C
inactive: [4] 94 % of control | [1] 101 % of control | [5] 91 % of control | [2] 101 % of control | [6] 97 % of control | [3] 95 % of control

O=C(CC(c1ccccc1)c1c(O)c2ccccc2oc1=O)c1ccccc1 (stereo unspecified)
inactive: dose: 0.5 mg/kg/injection, schedule: Q01DX009 (ip), vehicle: saline with Tween-80 95 % of control | dose: 1.0 mg/kg/injection, schedule: Q01DX009 (ip), vehicle: saline with Tween-80 97 % of control | dose: 2.0 mg/kg/injection, schedule: Q01DX009 (ip), vehicle: saline with Tween-80 100 % of control | dose: 4.0 mg/kg/injection, schedule: Q01DX009 (ip), vehicle: saline with Tween-80 104 % of control | [11] 94 % of control | [14] 91 % of control | [15] 101 % of control

Cc1cc(Cl)ccc1NC(=O)c1ccccc1C(=O)O
inactive: [4] 96 % of control | [1] 98 % of control | [5] 93 % of control | [2] 91 % of control | [6] 102 % of control | [3] 93 % of control

CCC(C)C(C(=O)O)c1ccccc1 (stereo unspecified)
inactive: [11] 100 % of control | [14] 98 % of control | [15] 94 % of control

CCn1c(=O)c2ccccc2c2cc([N+](=O)[O-])ccc21
inactive: [1] 90 % of control | [2] 97 % of control | [3] 97 % of control
